From PubChem BioAssay AID1259411 (Chemical Carcinogenesis Research Information System (CCRIS), 2018)
Activity calls are given as the source filed them. How the calls were made is not given here.

System: rodent carcinogenicity bioassays, tumor incidence
Experiment: CCRIS carcinogenicity studies
Procedure, shortened: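 Archive of carcinogenicity, mutagenicity, tumor promotion and tumor inhibition results drawn from journals, NCI reports and other sources, expert-reviewed; covers 1985-2011 and is no longer updated.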

Measured: carcinogen call

Nc1nc(N)nc(N)n1
inactive: Species: MOUSE, Strain/Sex: B6C3F1/FEMALE, Route: ORAL, Dose: 0, 2250, 4500 PPM IN DIET FOR 103 WK, Dose: 0, 2250, 4500 PPM IN DIET FOR 103 WK inactive; negative | Species: MOUSE, Strain/Sex: B6C3F1/MALE, Route: ORAL, Dose: 0, 2250, 4500 PPM IN DIET FOR 103 WK, Dose: 0, 2250, 4500 PPM IN DIET FOR 103 WK inactive; negative | Species: RAT, Strain/Sex: F344/FEMALE, Route: ORAL, Dose: 0, 4500, 9000 PPM IN DIET FOR 103 WK, Dose: 0, 4500, 9000 PPM IN DIET FOR 103 WK inactive; negative | Species: RAT, Strain/Sex: F344/MALE, Route: ORAL, Dose: 0, 1, 3% IN DIET CONTAINING 10% SODIUM CHLORIDE FOR 36 WK (STUDY DURATION: 40 WK), Dose: 0, 1, 3% IN DIET CONTAINING 10% SODIUM CHLORIDE FOR 36 WK (STUDY DURATION: 40 WK) inactive; negative
active: Species: RAT, Strain/Sex: F344/MALE, Route: ORAL, Dose: 0, 0.3, 1, 3% IN DIET FOR 36 WK (STUDY DURATION: 40 WK), Dose: 0, 0.3, 1, 3% IN DIET FOR 36 WK (STUDY DURATION: 40 WK), Tumor Site: Type of Lesion: BLADDER: PAPILLOMA, CARCINOMA active; positive | Species: RAT, Strain/Sex: F344/MALE, Route: ORAL, Dose: 0, 1, 3% IN DIET CONTAINING 5% SODIUM CHLORIDE FOR 36 WK (STUDY DURATION: 40 WK), Dose: 0, 1, 3% IN DIET CONTAINING 5% SODIUM CHLORIDE FOR 36 WK (STUDY DURATION: 40 WK), Tumor Site: Type of Lesion: URAINARY BLADDER: PAPILLOMA, CARCINOMA active; positive | Species: RAT, Strain/Sex: F344/MALE, Route: ORAL, Dose: 0, 1, 3% IN DIET FOR 36 WK (STUDY DURATION: 40 WK), Dose: 0, 1, 3% IN DIET FOR 36 WK (STUDY DURATION: 40 WK), Tumor Site: Type of Lesion: URINARY BLADDER: PAPILLOMA, CARCINOMA active; positive | Species: RAT, Strain/Sex: F344/MALE, Route: ORAL, Dose: 0, 2250, 4500 PPM IN DIET FOR 103 WK, Dose: 0, 2250, 4500 PPM IN DIET FOR 103 WK, Tumor Site: Type of Lesion: URINARY BLADDER: TRANSITIONAL CELL PAPILLOMA OR CARCINOMA active; positive

O=CNNC=O
active: Species: MOUSE, Strain/Sex: SWISS/FEMALE, Route: ORAL, Dose: 0, 2% SOLUTION IN DRINKING WATER FROM AGE 6 WK FOR LIFE FOR AN AVERAGE DAILY INTAKE OF 0, 144 MG, Dose: 0, 2% SOLUTION IN DRINKING WATER FROM AGE 6 WK FOR LIFE FOR AN AVERAGE DAILY INTAKE OF 0, 144 MG, Tumor Site: Type of Lesion: LUNG: ADENOMA OR ADENOCARCINOMA active; positive | Species: MOUSE, Strain/Sex: SWISS/MALE, Route: ORAL, Dose: 0, 2% SOLUTION IN DRINKING WATER FROM AGE 6 WK FOR LIFE FOR AN AVERAGE DAILY INTAKE OF 0, 146 MG, Dose: 0, 2% SOLUTION IN DRINKING WATER FROM AGE 6 WK FOR LIFE FOR AN AVERAGE DAILY INTAKE OF 0, 146 MG, Tumor Site: Type of Lesion: LUNG: ADENOMA OR ADENOCARCINOMA active; positive

ClC1=C(Cl)[C@]2(Cl)C3C(Cl)C(Cl)CC3[C@@]1(Cl)C2(Cl)Cl (some centres undefined)
inactive: Species: RAT, Strain/Sex: OSBORNE-MENDEL/FEMALE, Route: ORAL, Dose: 0, 120.8, 241.5PPM IN DIET, TWA, Dose: 0, 120.8, 241.5PPM IN DIET, TWA inactive; negative | Species: RAT, Strain/Sex: OSBORNE-MENDEL/MALE, Route: ORAL, Dose: 0, 203.5, 407.0PPM IN DIET, TWA, Dose: 0, 203.5, 407.0PPM IN DIET, TWA inactive; negative
active: Species: MOUSE, Strain/Sex: B6C3F1/FEMALE, Route: ORAL, Dose: 0, 30.1, 63.8 PPM IN DIET, TWA, Dose: 0, 30.1, 63.8 PPM IN DIET, TWA, Tumor Site: Type of Lesion: LIVER: HEPATOCELLULAR CARCINOMA active; positive | Species: MOUSE, Strain/Sex: B6C3F1/MALE, Route: ORAL, Dose: 0, 29.9, 56.2 PPM IN DIET, TWA, Dose: 0, 29.9, 56.2 PPM IN DIET, TWA, Tumor Site: Type of Lesion: LIVER: HEPATOCELLULAR CARCINOMA active; positive | Species: MOUSE, Strain/Sex: B6C3F1/MALE, Route: ORAL, Dose: 0, 55 PPM IN DIET BEGINNING AT 63 D OF AGE, AT 8 MO OF AGE DOSE INCREASED TO 60 PPM AND CONTINUED UNTIL 491 D OF AGE (ST, Tumor Site: Type of Lesion: LIVER: HEPATOCELLULAR ADENOMA, HEPATOCELLULAR CARCINOMA active; positive | Species: MOUSE, Strain/Sex: B6C3F1/MALE, Route: ORAL, Dose: 0, 55 PPM IN DIET BEGINNING AT 63 D OF AGE, AT 8 MO OF AGE DOSE WAS INCREASED TO 60 PPM FOR DURATION OF STUDY (STUDY DUR, Tumor Site: Type of Lesion: LIVER: HEPATOCELLULAR ADENOMA, HEPATOCELLULAR CARCINOMA active; positive | Species: MOUSE, Strain/Sex: B6D2F1/MALE, Route: ORAL, Dose: 0, 55 PPM IN DIET BEGINNING AT 63 D OF AGE, AT 8 MO OF AGE DOSE INCREASED TO 60 PPM AND CONTINUED UNTIL 491 D OF AGE (ST, Tumor Site: Type of Lesion: LIVER: HEPATOCELLULAR ADENOMA, HEPATOCELLULAR CARCINOMA active; positive | Species: MOUSE, Strain/Sex: B6D2F1/MALE, Route: ORAL, Dose: 0, 55 PPM IN DIET BEGINNING AT 63 D OF AGE, AT 8 MO OF AGE DOSE WAS INCREASED TO 60 PPM FOR DURATION OF STUDY (STUDY DUR, Tumor Site: Type of Lesion: LIVER: HEPATOCELLULAR ADENOMA, HEPATOCELLULAR CARCINOMA active; positive | Species: MOUSE, Strain/Sex: CD-1/MALE,FEMALE, Route: DIET, Dose: 0, 5, 25, 50 MG/KG FOR 18 MO, Tumor Site: Type of Lesion: LIVER: HEPATOCELLULAR CARCINOMA active; positive

C[N+](C)(C)CCCl
inactive: Species: MOUSE, Strain/Sex: B6C3F1/FEMALE, Route: ORAL, Dose: 0, 500, 2000 PPM IN DIET, Dose: 0, 500, 2000 PPM IN DIET inactive; negative | Species: MOUSE, Strain/Sex: B6C3F1/MALE, Route: ORAL, Dose: 0, 500, 2000 PPM IN DIET, Dose: 0, 500, 2000 PPM IN DIET inactive; negative | Species: RAT, Strain/Sex: F344/FEMALE, Route: ORAL, Dose: 0, 1500, 3000 PPM IN DIET, Dose: 0, 1500, 3000 PPM IN DIET inactive; negative | Species: RAT, Strain/Sex: F344/MALE, Route: ORAL, Dose: 0, 1500, 3000 PPM IN DIET, Dose: 0, 1500, 3000 PPM IN DIET inactive; negative

COC(=O)c1ccc(C(=O)OC)cc1
inactive: Species: MOUSE, Strain/Sex: B6C3F1/FEMALE, Route: ORAL, Dose: 0, 2500, 5000 PPM IN DIET FOR 103 WK (STUDY DURATION: 104-105 WK), Dose: 0, 2500, 5000 PPM IN DIET FOR 103 WK (STUDY DURATION: 104-105 WK) inactive; negative | Species: RAT, Strain/Sex: F344/FEMALE, Route: ORAL, Dose: 0, 2500, 5000 PPM IN DIET FOR 103 WK (STUDY DURATION: 105-106 WK), Dose: 0, 2500, 5000 PPM IN DIET FOR 103 WK (STUDY DURATION: 105-106 WK) inactive; negative | Species: RAT, Strain/Sex: F344/MALE, Route: ORAL, Dose: 0, 2500, 5000 PPM IN DIET FOR 103 WK (STUDY DURATION: 105-106 WK), Dose: 0, 2500, 5000 PPM IN DIET FOR 103 WK (STUDY DURATION: 105-106 WK) inactive; negative
equivocal: Species: MOUSE, Strain/Sex: B6C3F1/MALE, Route: ORAL, Dose: 0, 2500, 5000 PPM IN DIET FOR 103 WK (STUDY DURATION: 104-105 WK), Dose: 0, 2500, 5000 PPM IN DIET FOR 103 WK (STUDY DURATION: 104-105 WK), Tumor Site: Type of Lesion: LUNG: ALVEOLAR/BRONCHIOLAR ADENOMA OR CARCINOMA

CCCCN(N=O)C(CCC)OC(C)=O (centres undefined)
active: Species: RAT, Strain/Sex: F344/FEMALE, Route: SUBCUTANEOUS, Dose: 38 UMOL/KG IN OLIVE OIL 1/WK FOR 10 WK, Tumor Site: Type of Lesion: INJECTION SITE: MALIGNANT FIBROUS HISTIOCYTOMA active; positive | Species: RAT, Strain/Sex: F344/MALE, Route: SUBCUTANEOUS, Dose: 38 UMOL/KG IN OLIVE OIL 1/WK FOR 10 WK, Tumor Site: Type of Lesion: INJECTION SITE: MALIGNANT FIBROUS HISTIOCYTOMA, LUNG: ADENOMA active; positive
